Laboratory results published in publication PMC10005185, “Structure-guided engineering of a receptor-agonist pair for inducible activation of the ABA adaptive response to drought” (Science Advances, 2023).
Where two headings read alike, the source gives them in different places.

How the values were obtained:
[1] = system: Arabidopsis thaliana seedlings (WT Col-0, overexpressing lines, receptor mutants); details: pyr1 pyl1 double mutant ref 36; cited from earlier work
[2] = system: Arabidopsis thaliana seeds (WT Col-0, CsPYL1 and CsPYL1^5m lines); test: Seed germination assay; format: in vivo; details: Arabidopsis thaliana
Description: For seed germination assays, seeds were stratified in the dark at 4°C for 3 days. Approximately 100 seeds of each genotype were sown on MS plates supplemented with six different ligand concentrations. The experiments were repeated three times. To score seed germination, radical emergence was analyzed at 24 hours after sowing.

[3] = system: Arabidopsis thaliana seedlings; test: Root growth assay; format: in vivo; details: 10 μM
Description: Seedlings were grown on vertically oriented Murashige and Skoog (MS) plates for 4 to 5 days. Afterward, seedlings were transferred to MS supplemented with the indicated concentrations of the different ligands and kept on vertical orientation. Ten days later, the plates were scanned on a flatbed scanner to produce image files suitable for quantitative analysis of root growth using the NIH Image software ImageJ. The experiment was performed in triplicate (n = 13 to 16). Statistical comparisons were performed by either pairwise t tests or one-way ANOVA using GraphPad Prism 9.

[4] = system: Arabidopsis thaliana plants (WT Col-0, CsPYL1^5m lines); test: Whole-plant gas exchange, stomatal conductance (Gs); format: in vivo
Description: A. thaliana seeds were planted in specific gas exchange pots, where above- and below-ground parts can be separated by glass into 2:1 (v:v) peat:vermiculite mixture. The plants were grown in growth chambers (Snijders Scientific, Drogenbos, Belgium) at 12/12 photoperiod, 23/18°C temperature, 160 μmol m^−2 s^−1 light, and 70% relative humidity and were 23 to 28 days old during gas exchange experiments. Whole-rosette stomatal conductances were recorded with an eight-chamber custom-built temperature-controlled gas exchange device as described before ([72]). Plants were inserted into the measurement cuvettes and allowed to stabilize at standard conditions: ambient CO2, ~420 ppm; air temperature, 24° ± 0.5°C; light, 160 μmol m^−2 s^−1; relative air humidity, 66 ± 3%. For sprayings, plants were removed from gas exchange cuvettes, sprayed with respective solutions, and put back into the cuvettes for stomatal conductance recordings for 56 min. To check the long-term effect of compounds on plants, stomatal conductance measurements were performed about 24 and 48 hours after sprayings. In the meantime, plants were kept in growth chambers as described above. Photographs of plants were taken after the experiment, and leaf rosette area was calculated using ImageJ 1.37v [National Institutes of Health (NIH), USA]. Stomatal conductance for water vapor was calculated with a custom-written program as described ([72]).

[5] = system: Arabidopsis thaliana plants; test: IR thermography of leaf temperature, arabidopsis; format: in vivo; details: transgenic CsPYL1^5m lines and Col-0, 50 μM, 24 hours after spraying
Description: A. thaliana plants were grown in a controlled environment growth chamber at 21°/19°C under 8-hour light/16-hour dark photoperiod at 100 μE m^−2 s^−1. IR thermography images of rosette leaves were acquired with a thermal camera FLIR E95 equipped with a 42° lens, 24 hours after spraying 6-week-old plants with 10 mM MES (pH 5.7) + 0.02% Silwet L-77 plus 50 μM ligand or 0.1% DMSO as a control. Images were processed and quantified with the FLIR tools software. The average temperature of 15 different sections taken from four to six leaves per plant was used for quantification. At least six plants per genotype were analyzed, and the experiments were repeated twice. Statistical analysis was performed using GraphPad Prism 9. T test or ANOVA analysis was carried out to identify statistical significance among datasets.

[6] = system: Nicotiana benthamiana WT plants; test: IR thermography of leaf temperature, N. benthamiana; format: in vivo; details: nontransformed leaves, 24 hours after spraying, 50 μM ABA or 100 μM iSB07 or iSB09, compared to mock
Description: IR images were taken using a FLIR […] thermocamera 1 day after the treatment (for N. benthamiana) or 2 and 5 days (for S. lycopersicum). Quantification was performed using the FLIR tools software on fully expanded leaves by analyzing 10 sections per leaf. At least six plants per genotype and treatment were analyzed in each experiment. Experiments were repeated twice. The average plant temperature ± SD of all the plants for each treatment and genotype was calculated and used to report the increase in temperature produced by each treatment. Statistical comparisons among genotypes were performed by either pairwise t tests or one-way ANOVA.

[7] = system: MAPKKK18 promoter-LUC reporter; test: pMAPKKK18-LUC luciferase reporter assay; format: in vivo, Arabidopsis thaliana; details: 100 μM, 6 hours
Description: […]18-LUC seedlings were grown in 24-well plates (25 to 35 seeds per well) filled with 1 ml of liquid MS medium for 7 days. MS medium was replaced with fresh medium supplemented with 100 μM D-luciferin, potassium salt (GoldBio), and the indicated treatments with iSB07, iSB09, or ABA. Seedlings were incubated for 6 hours, and luminescence was recorded with a LAS-3000 imager (Fujifilm) equipped with a charge-coupled device camera using 2-min exposures. Eight-bit images were transformed in rainbow false color and quantified using Fiji. The experiment was repeated at least twice.

AtHAB1ΔN with CsPYL1^5m = test: PP2C inhibition assay, HAB1 with CsPYL1^5m; format: biochemical, Citrus sinensis (CsPYL1^5m); Arabidopsis thaliana (HAB1)
Description: His-tagged receptors and phosphatases were purified using nickel–nitrilotriacetic acid (Ni-NTA) affinity chromatography. Protein integrity was analyzed by SDS–polyacrylamide gel electrophoresis, followed by InstantBlue staining. Phosphatase activity was measured using p-Nitrophenyl Phosphate (pNPP) (25 mM) as substrate, 10 mM MnCl2,1 μM PP2C, and 2 μM of the indicated receptors. […] Assays were repeated twice. For dose-response experiments, IC50 values were obtained with GraphPad Prism 9 using a nonlinear regression curve fit. Each ligand concentration was tested in triplicate. Phosphatase activity of ABI1 was measured using RRA(phosphoT)VA peptide as a substrate, as described ([27]).

ABI1 with AtPYL1 = molecular target: T1, ABI1 with AtPYL1 (Arabidopsis thaliana, UniProt Q8VZS8); test: PP2C inhibition assay, ABI1 with AtPYL1; format: biochemical
T1 construct: His; made in house
T1 sequence (Q8VZS8 whole entry): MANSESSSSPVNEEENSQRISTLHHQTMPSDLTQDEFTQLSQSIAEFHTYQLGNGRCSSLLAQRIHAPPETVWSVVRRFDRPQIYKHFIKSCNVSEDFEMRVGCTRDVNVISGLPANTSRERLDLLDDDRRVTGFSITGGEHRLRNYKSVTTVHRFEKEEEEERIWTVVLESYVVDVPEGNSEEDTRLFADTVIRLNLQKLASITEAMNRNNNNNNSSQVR
T1 sequence (P49597 whole entry partner): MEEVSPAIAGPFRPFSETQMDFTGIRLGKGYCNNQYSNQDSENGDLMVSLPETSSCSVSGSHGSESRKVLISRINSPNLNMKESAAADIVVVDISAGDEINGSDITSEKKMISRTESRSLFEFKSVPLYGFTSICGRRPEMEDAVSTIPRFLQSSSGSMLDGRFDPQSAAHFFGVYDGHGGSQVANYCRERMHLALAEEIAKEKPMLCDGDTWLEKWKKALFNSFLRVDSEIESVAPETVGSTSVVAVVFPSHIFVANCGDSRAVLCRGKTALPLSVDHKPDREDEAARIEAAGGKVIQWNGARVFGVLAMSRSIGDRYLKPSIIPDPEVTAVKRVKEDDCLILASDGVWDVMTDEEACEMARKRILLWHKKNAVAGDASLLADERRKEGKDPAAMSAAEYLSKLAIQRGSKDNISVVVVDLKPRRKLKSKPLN
Description: (§1) His-tagged receptors and phosphatases were purified using nickel–nitrilotriacetic acid (Ni-NTA) affinity chromatography. Protein integrity was analyzed by SDS–polyacrylamide gel electrophoresis, followed by InstantBlue staining. Phosphatase activity was measured using p-Nitrophenyl Phosphate (pNPP) (25 mM) as substrate, 10 mM MnCl2,1 μM PP2C, and 2 μM of the indicated receptors. Proteins were incubated with the ligands for 10 min at room temperature. pNPP was then added to start the reactions, and the absorbance at 405 nm was monitored for 20 min in a ViktorX5 plate reader. Assays were repeated twice. For dose-response experiments, IC50 values were obtained with GraphPad Prism 9 using a nonlinear regression curve fit. Each ligand concentration was tested in triplicate. Phosphatase activity of ABI1 was measured using RRA(phosphoT)VA peptide as a substrate, as described ([27]). […]
(§2) (D) Dose response analysis of iSB09 or ABA-dependent inhibition of ABI1 (blue and black lines, respectively) in presence of either AtPYL1 or AtPYR1. Values (average of duplicates) show PP2C activity after incubation with the indicated concentration of ligand and receptor at 1:2 ratio (1 µM phosphatase:2 µM receptor). […]
(§3) whereas with AtPYR1 was 200 nM and 213 nM, for ABA and iSB09, respectively. Ligands were assayed

ABI1 with AtPYR1 = molecular target: T2, ABI1 with AtPYR1 (Arabidopsis thaliana, UniProt O49686); test: PP2C inhibition assay, ABI1 with AtPYR1; format: biochemical
T2 construct: His; made in house
T2 sequence (O49686 whole entry): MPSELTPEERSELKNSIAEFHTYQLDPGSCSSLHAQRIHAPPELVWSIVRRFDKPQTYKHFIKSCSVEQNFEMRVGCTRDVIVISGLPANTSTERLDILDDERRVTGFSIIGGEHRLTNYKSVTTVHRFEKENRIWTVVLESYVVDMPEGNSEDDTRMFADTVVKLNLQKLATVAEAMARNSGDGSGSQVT
T2 sequence (P49597 whole entry partner): as the sequence (P49597 whole entry partner) above
Description: as §1, §2, §3

AtPYL5:ΔNHAB1 = AtPYL5:ΔNHAB1 (Arabidopsis thaliana, UniProt Q9FLB1); test: Native red electrophoresis of ligand-induced ternary complex
AtPYL5:ΔNHAB1, sequence (Q9FLB1 whole entry, stated change not applied): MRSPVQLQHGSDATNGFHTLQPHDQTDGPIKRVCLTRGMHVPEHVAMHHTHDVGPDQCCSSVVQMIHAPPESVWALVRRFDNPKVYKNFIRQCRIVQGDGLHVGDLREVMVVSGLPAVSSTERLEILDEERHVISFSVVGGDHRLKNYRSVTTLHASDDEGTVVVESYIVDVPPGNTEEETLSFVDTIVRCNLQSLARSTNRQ
Description: Electrophoresis was performed at a constant current of 25 mA for 150 min at 4°C. Proteins were detected in gel by InstantBlue staining, and band quantification was performed using the ImageJ software. To obtain apparent Kd values, the proportion of ternary complex formed (fraction bound) and the ABA or iSB09 free concentration in each lane were calculated and plotted as represented in Fig. 3 (E and F). Then, the dose-response curves were fitted to the classical Hill equation using the GraphPad Prism software.

HAB1 with AtPYL4 = molecular target: T3, HAB1 with AtPYL4 (Arabidopsis thaliana, UniProt O80920); test: PP2C inhibition assay, HAB1 with AtPYL4; format: biochemical; details: 1 µM phosphatase:2 µM receptor
T3 construct: His; made in house
T3 sequence (Q9CAJ0 179-511): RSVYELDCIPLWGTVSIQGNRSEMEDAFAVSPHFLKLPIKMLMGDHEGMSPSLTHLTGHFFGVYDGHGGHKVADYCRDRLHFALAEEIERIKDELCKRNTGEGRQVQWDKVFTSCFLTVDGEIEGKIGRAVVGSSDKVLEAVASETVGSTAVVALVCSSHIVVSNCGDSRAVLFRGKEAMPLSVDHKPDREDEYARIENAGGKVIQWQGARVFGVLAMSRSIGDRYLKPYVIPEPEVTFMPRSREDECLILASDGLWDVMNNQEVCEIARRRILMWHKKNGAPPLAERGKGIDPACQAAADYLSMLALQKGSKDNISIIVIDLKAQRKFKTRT
T3 sequence (O80920 whole entry): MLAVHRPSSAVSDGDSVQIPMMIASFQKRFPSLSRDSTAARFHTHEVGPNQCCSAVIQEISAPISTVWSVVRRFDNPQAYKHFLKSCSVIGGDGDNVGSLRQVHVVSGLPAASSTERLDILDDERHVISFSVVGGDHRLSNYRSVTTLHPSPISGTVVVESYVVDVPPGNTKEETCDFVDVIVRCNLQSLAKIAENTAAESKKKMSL
Description: His-tagged receptors and phosphatases were purified using nickel–nitrilotriacetic acid (Ni-NTA) affinity chromatography. Protein integrity was analyzed by SDS–polyacrylamide gel electrophoresis, followed by InstantBlue staining. Phosphatase activity was measured using p-Nitrophenyl Phosphate (pNPP) (25 mM) as substrate, 10 mM MnCl2,1 μM PP2C, and 2 μM of the indicated receptors. Proteins were incubated with the ligands for 10 min at room temperature. pNPP was then added to start the reactions, and the absorbance at 405 nm was monitored for 20 min in a ViktorX5 plate reader. Assays were repeated twice. For dose-response experiments, IC50 values were obtained with GraphPad Prism 9 using a nonlinear regression curve fit. Each ligand concentration was tested in triplicate. Phosphatase activity of ABI1 was measured using RRA(phosphoT)VA peptide as a substrate, as described ([27]).
(§4) Fig. S6. QB lacks bioactivity in tomato whereas iSB09 is
(§5) (A) Quantification of the leaf temperature difference at 2 and 5 days after spraying tomato plants with 0.1 % DMSO
(§6) (mock- treated control), 10 µM iSB09 or 10 µM QB.
Asterisk indicates p<0.001 (Student’s t test). Values show individual points and average ± SD (n=4 replicates for mock and chemical treatments). (B) IR-images of representative tomato plants at 2 days after being treated with 0.1 % DMSO […]

tomato plants = test: IR thermography of leaf temperature, tomato; format: in vivo, Solanum lycopersicum; details: 10 μM, 2 and 5 days after spraying
Description: For experiments using N. benthamiana or S. lycopersium, 1-month-old plants grown under long-day conditions (16-hour light/8-hour dark) were sprayed with 10 mM MES (pH 5.7) + 0.02% Silwet L77 supplemented with either 50 μM ABA, or the indicated concentration of iSB07/iSB09 or 0.1% DMSO as a mock-treated control. IR images were taken using a FLIR E95 thermocamera 1 day after the treatment (for N. benthamiana) or 2 and 5 days (for S. lycopersicum). Quantification was performed using the FLIR tools software on fully expanded leaves by analyzing 10 sections per leaf. At least six plants per genotype and treatment were analyzed in each experiment. Experiments were repeated twice. The average plant temperature ± SD of all the plants for each treatment and genotype was calculated and used to report the increase in temperature produced by each treatment. Statistical comparisons among genotypes were performed by either pairwise t tests or one-way ANOVA.
as §4, §5, §6
Asterisk indicates p<0.001 (Student’s t test). Values show individual points and average ± SD (n=4 replicates for mock and chemical treatments). (B) IR-images of representative tomato plants at 2 days after being treated with 0.1 % DMSO
Photographs were taken with white light (leaf panel) or infrared thermography (right panel) using the camera FLIR
HAB1 phosphatase activity in presence of PYL4. IC50 values for iSB09 or QB-dependent inhibition of HAB1 by AtPYL4. Values (average of duplicates) show PP2C activity after incubation with the indicated concentration of ligand and AtPYL4 at 1:2 ratio (1 µM phosphatase:2 µM receptor).
(1 picture or pasted object on this page, not shown here)

ΔNHAB1 with AtPYL1 = molecular target: T4, ΔNHAB1 with AtPYL1 (Arabidopsis thaliana, UniProt Q8VZS8); details: AtPYL1 ref 45; cited from earlier work
T4 construct: His; made in house
T4 sequence (Q8VZS8 whole entry, stated change not applied): as the sequence (Q8VZS8 whole entry) above

ΔNHAB1 with AtPYL10 = molecular target: T5, ΔNHAB1 with AtPYL10 (Arabidopsis thaliana, UniProt Q8H1R0); details: AtPYL10 ref 45; cited from earlier work
T5 construct: His; made in house
T5 sequence (Q8H1R0 whole entry, stated change not applied): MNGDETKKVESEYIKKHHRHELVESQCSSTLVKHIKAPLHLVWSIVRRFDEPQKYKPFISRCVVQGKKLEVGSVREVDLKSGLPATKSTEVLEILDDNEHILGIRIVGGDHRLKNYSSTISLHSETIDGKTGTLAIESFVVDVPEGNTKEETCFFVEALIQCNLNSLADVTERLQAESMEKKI

For `CCCN1C(=O)CCc2cc(NS(=O)(=O)Cc3c(F)c(F)c(C)c(F)c3F)ccc21` [AMF4], the “effect in pyr1 pyl1 double mutant” value [1] is given as “lack effect”.

`Cc1cc(=O)n(C)c2ccc(CNS(=O)(=O)c3ccccc3)cc12` [iSB07] showed an IC50 ([2]; WT Col-0, read-out: Germination IC50) of 12.7 µM, an IC50 ([2]; line expressing CsPYL1, read-out: Germination IC50) of 4.03 µM and an IC50 ([2]; line expressing CsPYL1^5m, read-out: Germination IC50) of 0.943 µM. The “inhibition of root growth” value ([3]; CsPYL1^5m lines) was “marked inhibition”, the “inhibition of root growth” value ([3]; WT plants) was “did not significantly inhibit” and the “reduction of stomatal conductance (Gs)” value ([4]; WT, spraying with 20 μM) was “not effective”. The “reduction of Gs 24 and 48 hours after spraying” value ([4]; transgenic lines, 5 μM) was “nonsignificant”, the “leaf temperature by thermal imaging” value [5] was “increased leaf temperature” and the “leaf temperature by thermal imaging” value [6] was “increased leaf temperature”. The “induction of LUC relative to iSB09” value [7] was “approximately fivefold lower”.

With `CC1=CC(=O)CC(C)(C)[C@@]1(O)/C=C/C(C)=C\C(=O)O` [ABA, abscisic acid, reference compound] the “IC50 of ABA for CsPYL1^5m compared to WT CsPYL1” value (AtHAB1ΔN with CsPYL1^5m) was “fourfold increase”, the IC50 (ABI1 with AtPYL1) was 0.274 µM and the IC50 (ABI1 with AtPYR1) was 0.2 µM. The IC50 ([2]; read-out: Germination IC50, WT Col-0) was 0.216 µM, the IC50 ([2]; read-out: Germination IC50, line expressing CsPYL1) was 0.304 µM and the IC50 ([2]; read-out: Germination IC50, line expressing CsPYL1^5m) was 0.458 µM. For the same molecule, the “leaf temperature by thermal imaging” value [6] was “increased leaf temperature” and the Kd (AtPYL5:ΔNHAB1) was 2.1 µM.

For `CCCN1C(=O)CCc2cc(NS(=O)(=O)Cc3ccc(C)cc3)ccc21` [QB, quinabactin], the IC50 (HAB1 with AtPYL4) is given as 1.88 µM, the “bioactivity in tomato (leaf temperature)” value (tomato plants) is given as “lacked bioactivity” and the receptor activation (ΔNHAB1 with AtPYL1) is given as “activates AtPYL1”. The receptor activation (ΔNHAB1 with AtPYL10) was “not AtPYL10” and the “effect in pyr1 pyl1 double mutant” value [1] was “lack effect”.
